Like-named read-outs stand apart in the source and are kept apart here.
Legend:
WI-38 cells [1] = test: Long-term effects on cell viability (5 days, ATP; morphology, PI imaging); assay type: cell-based; conditions: 10 μM; for Luminescence signal for ATP measurement, day-1 Average / Luminescence signal for ATP measurement, day-2 Average / Luminescence signal for ATP measurement, day-3 Average / Luminescence signal for ATP measurement, day-4 Average / Luminescence signal for ATP measurement, day-5 Average / viability at 10 µM: Batch 1; for Luminescence signal for ATP measurement, day-1 Average / Luminescence signal for ATP measurement, day-2 Average / Luminescence signal for ATP measurement, day-3 Average / Luminescence signal for ATP measurement, day-4 Average / Luminescence signal for ATP measurement, day-5 Average: n = 6, day-0 luminescence = 320956 ± 24708; for viability at 10 µM: Homo sapiens, WI-38, 120 h, DMSO ctrl = 100.0%, read-out: ATP luminescence by day-5 normalized; for Luminescence signal for ATP measurement, day-5 Average / viability at 10 µM: day-5;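 as to Luminescence signal for ATP measurement, day-2 Average: compounds at 10 µM with ATP read daily over 5 days of treatment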;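 as to Luminescence signal for ATP measurement, day-3 Average: compounds at 10 µM with ATP read daily over 5 days of treatment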;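 as to Luminescence signal for ATP measurement, day-4 Average: compounds at 10 µM with ATP read daily over 5 days of treatment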;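 as to Luminescence signal for ATP measurement, day-5 Average: compounds at 10 µM with ATP read daily over 5 days of treatment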
[2] = test system: human dermal fibroblast (HDF) primary cells; test: H2O2-resistance in primary human dermal fibroblasts; assay type: cell-based; conditions: for fold induction at 10 µM: Homo sapiens; for Assay 6: H2O2-resistant, at 10 uM, human dermal fibroblast (HDF) primary cells: YES/NO
LC3A/B puncta = test: Autophagy induction analysis (LC3A/B puncta immuno-staining); assay type: cell-based, human
Summary of the method: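 WI-38 cells were treated with compounds for 24 hrs, then immunostained for LC3A/B (overnight, 4° C) with DAPI counterstain and imaged by high-content microscopy. Experiment 1 used total puncta intensity. Experiment 2 used LAMP2-colocalized (lysosomal) puncta. Intensity was normalized to nuclei count.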

[3] = test system: phosphorylated γH2A.X and TP53BP1; test: DNA damage marker analysis (immuno-staining); conditions: for activity at 10 µM: Homo sapiens, WI-38, 24 h; for P = Potential DNA-damaging / R = Potential DNA damaging: human, 24 h
Summary of the method: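 WI-38 cells were cultured 24 h, then treated with compounds for 24 h; H2O2 (700 μM, 3 h) and doxorubicin (300 nM, 24 h) served as DNA-damage controls. After fixation, cells were immunostained for phospho-γH2A.X (Ser-139) and phospho-TP53BP1 (Ser-1778), counterstained with DAPI, and imaged by automated high-content microscopy.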

WI-38 cells [4] = test: Propidium iodide (PI) cell-death imaging upon H2O2 stress; assay type: cell-based, human; conditions: for Assay 7: H2O2-resistant, at 10 uM, validated by propidium iodide (PI) cell-death imaging: w/H2O2, 3 hrs/4 hrs/5 hrs, YES/NO; for cytotoxicity at 10 µM: Homo sapiens, WI-38
[5] = Summary score for characterization of 38 core set hits; conditions: for D = Triple resistant: 2-point score, multiplex resistance (cadmium, MMS, H2O2); for S = Sum of Negative scores: human; for C = H2O2- & Cd-resistant: score, resistance to both H2O2 and cadmium
Summary of the method: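 Scoring awards 2 points per prominent longevity phenotype: resistance to multiple stresses, activation of FOXO3 and/or NRF2, reduced mTOR. Molecules with apparent DNA-damaging activity or cell toxicity in cultured human cells receive a negative point.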

[6] = Experiment 1, HDF cells, read-out: Experiment 1, HDF cells (under H2O2 stress treatment), at 10 uM (fold change)
[7] = Experiment 2, HDF cells, read-out: Experiment 2, HDF cells (under H2O2 stress treatment), at 10 uM (fold change)
[8] = read-out: Experiment 1, H2A.X-P DNA damage foci staining (no H2O2 stress treatment), at 10 uM
[9] = read-out: Experiment 2, H2A.X-P DNA damage foci staining (no H2O2 stress treatment), at 10 uM
[10] = read-out: Experiment 2, H2A.X-P DNA damage foci staining (under H2O2 stress treatment), at 10 uM
[11] = read-out: Experiment 2, TP53BP1-P DNA damage foci staining (no H2O2 stress treatment), at 10 uM
[12] = read-out: Experiment 2, TP53BP1-P DNA damage foci staining (under H2O2 stress treatment), at 10 uM
[13] = H2O2 3 hrs, 10 uM, n = 6, negative control 5.44% ± 0.79%, read-out: Percentage of propidium iodide-positive dead cells (under H2O2 stress treatment), 3 hrs
[14] = pre-treatment at 10 uM, 3.5 hours of H2O2, DMSO control 27.4% ± 6.5%, */**/*** = reduced by one/two/three standard deviations, read-out: Percentage of propidium iodide-positive dead cells (under H2O2 stress treatment), at 10 uM
[15] = H2O2 4 hrs, 10 uM, n = 6, negative control 16.81% ± 1.42%, read-out: Percentage of propidium iodide-positive dead cells (under H2O2 stress treatment), 4 hrs
[16] = H2O2 5 hrs, 10 uM, n = 6, negative control 22.50% ± 1.53%, read-out: Percentage of propidium iodide-positive dead cells (under H2O2 stress treatment), 5 hrs

| SMILES | Luminescence signal for ATP measurement, day-1 Average (WI-38 cells [1]) | Luminescence signal for ATP measurement, day-2 Average (WI-38 cells [1]) | Luminescence signal for ATP measurement, day-3 Average (WI-38 cells [1]) | Luminescence signal for ATP measurement, day-4 Average (WI-38 cells [1]) | Luminescence signal for ATP measurement, day-5 Average (WI-38 cells [1]) | viability at 10 µM (WI-38 cells [1]) [%] | O = Potential toxicity (WI-38 cells [1]; human, 5 days) | Q = Potential toxicity (WI-38 cells [1]; human, 5 days) | fold induction at 10 µM [2, 6] | fold induction at 10 µM [2, 7] | Assay 6: H2O2-resistant, at 10 uM, human dermal fibroblast (HDF) primary cells [2] | H = Potential Autophagy Induction (LC3A/B puncta; score) | H = Potential Autophagy Induction (LC3A/B puncta; summary score) | activity at 10 µM [3, 8] [%] | activity at 10 µM [3, 9] [%] | activity at 10 µM [3, 10] [%] | activity at 10 µM [3, 11] [%] | activity at 10 µM [3, 12] [%] | P = Potential DNA-damaging [3] | R = Potential DNA damaging [3] | other results |
| --- | --- | --- | --- | --- | --- | --- | --- | --- | --- | --- | --- | --- | --- | --- | --- | --- | --- | --- | --- | --- | --- |
| O=C(/C=C/c1cn(-c2ccccc2)nc1-c1cccnc1)c1ccccc1 [Gr-6B] | 467756 | 641901 | 736245 | 969598 | 953988 | 92.9 | 0 | 0 | 3.6 | 57.6 | YES | 0 | 0 | 93.4 | 112 | 136 | 176 | 272 | 0 | 0 | Assay 7: H2O2-resistant, at 10 uM, validated by propidium iodide (PI) cell-death imaging (WI-38 cells [4]; 10 uM): YES; cytotoxicity at 10 µM (WI-38 cells [4]; [13]): 2.62%; cytotoxicity at 10 µM (WI-38 cells [4]; [14]): 2.1%; D = Triple resistant [5]: 0; S = Sum of Negative scores [5]: 0; C = H2O2- & Cd-resistant [5]: 1 |
| N=C1S/C(=C\c2cn(-c3ccccc3)nc2-c2cccs2)C(=O)N1c1nccs1 [Gr-6C] | 435273 | 542716 | 574765 | 624471 | 548865 | 53.5 | 0 | 1 | 0.01 | 50.6 | YES | 0 | 0 | 181 | 300 | 43 | 290 | 440 | 1 | 1 | Assay 7: H2O2-resistant, at 10 uM, validated by propidium iodide (PI) cell-death imaging (WI-38 cells [4]; 10 uM): YES; cytotoxicity at 10 µM (WI-38 cells [4]; [13]): 1.17%; cytotoxicity at 10 µM (WI-38 cells [4]; [15]): 1.39%; cytotoxicity at 10 µM (WI-38 cells [4]; [16]): 6.12%; cytotoxicity at 10 µM (WI-38 cells [4]; [14]): 7.9%; D = Triple resistant [5]: 0; S = Sum of Negative scores [5]: 2; C = H2O2- & Cd-resistant [5]: 0 |
| O=C(NCc1cccnc1)/C(=C\c1cccc(Oc2ccccc2)c1)S(=O)(=O)c1ccccc1 [Gr-7A] | 463265 | 192116 | 67526 | 48480 | 44670 | 4.4 | 0 | 1 | 1.2 | 4.11 | YES | 0 | 0 | 337 | 246 | 113 | 363 | 516 | 0 | 0 | Assay 7: H2O2-resistant, at 10 uM, validated by propidium iodide (PI) cell-death imaging (WI-38 cells [4]; 10 uM): YES; cytotoxicity at 10 µM (WI-38 cells [4]; [13]): 2.78%; cytotoxicity at 10 µM (WI-38 cells [4]; [15]): 2.32%; cytotoxicity at 10 µM (WI-38 cells [4]; [16]): 3.52%; cytotoxicity at 10 µM (WI-38 cells [4]; [14]): 9.9%; D = Triple resistant [5]: 0; S = Sum of Negative scores [5]: 1; C = H2O2- & Cd-resistant [5]: 0 |
| O=C(NCc1cccnc1)/C(=C\c1ccc(Br)cc1)S(=O)(=O)c1ccccc1 [Gr-7B] | 311883 | 56498 | 40001 | 44298 | 40768 | 4 | 1 | 1 | 3.71 | 3.35 | YES | 0 | 0 | 695 | 348 | 74 | 31.3 | 4.2 | 0 | 0 | Reduction of ATP content after 5 days of continuous incubation (WI-38 cells [1]; human, 5 days): more than 40%; Assay 7: H2O2-resistant, at 10 uM, validated by propidium iodide (PI) cell-death imaging (WI-38 cells [4]; 10 uM): YES; cytotoxicity at 10 µM (WI-38 cells [4]; [13]): 5.88%; cytotoxicity at 10 µM (WI-38 cells [4]; [15]): 6.44%; cytotoxicity at 10 µM (WI-38 cells [4]; [14]): 4.7%; D = Triple resistant [5]: 0; S = Sum of Negative scores [5]: 1; C = H2O2- & Cd-resistant [5]: 0 |
| O=C(NCc1cccnc1)/C(=C/c1ccc(-c2ccc(Cl)cc2)o1)S(=O)(=O)c1ccccc1 [Gr-7C] | 378655 | 140712 | 84446 | 72490 | 127440 | 12.4 | 0 | 1 | 0.074 | 8.33 | YES | 0 | 0 | 132 | 135 | 82.9 | 196 | 369 | 0 | 0 | Assay 7: H2O2-resistant, at 10 uM, validated by propidium iodide (PI) cell-death imaging (WI-38 cells [4]; 10 uM): YES; cytotoxicity at 10 µM (WI-38 cells [4]; [13]): 0.82%; cytotoxicity at 10 µM (WI-38 cells [4]; [15]): 2.36%; cytotoxicity at 10 µM (WI-38 cells [4]; [16]): 3.73%; cytotoxicity at 10 µM (WI-38 cells [4]; [14]): 12.5%; D = Triple resistant [5]: 0; S = Sum of Negative scores [5]: 1; C = H2O2- & Cd-resistant [5]: 0 |
| O=C1NCCCc2cc(Cl)sc21 [O1] | 461478 | 722566 | 824266 | 1101026 | 977541 | 95.2 | 0 | 0 | 2.95 | 17.8 | YES | 0 | 0 | 102 | 104 | 216 | 143 | 336 | 0 | 0 | Assay 7: H2O2-resistant, at 10 uM, validated by propidium iodide (PI) cell-death imaging (WI-38 cells [4]; 10 uM): YES; cytotoxicity at 10 µM (WI-38 cells [4]; [13]): 5.8%; cytotoxicity at 10 µM (WI-38 cells [4]; [14]): 20.4%; D = Triple resistant [5]: 0; S = Sum of Negative scores [5]: 0; C = H2O2- & Cd-resistant [5]: 1 |

From patent US11413278B2, “Compounds and methods for promoting stress resistance” (priority 2015, dated 2022)
